Literature values in patent US9375470B2, “Compositions with reduced dimer formation” (Circassia Limited, priority 2008, dated 2016).
Where two headings read alike, the source gives them in different places.

[1] = reported values, Tg for the maximally freeze concentrated state

## OC[C@H]1O[C@H](O[C@H]2O[C@H](CO)[C@@H](O)[C@H](O)[C@H]2O)[C@H](O)[C@@H](O)[C@@H]1O [Trehalose]
Reported values
  Tg: 63-115 °C
[1]
  Tg′: Approx. −27

## OC[C@H]1O[C@H](OC[C@H]2O[C@H](O[C@]3(CO)O[C@H](CO)[C@@H](O)[C@@H]3O)[C@H](O)[C@@H](O)[C@@H]2O)[C@H](O)[C@@H](O)[C@H]1O [Raffinose]
Reported values
  Tg: 70-106 °C
[1]
  Tg′: Approx. −36

## OC[C@H]1O[C@@](CO)(O[C@H]2O[C@H](CO)[C@@H](O)[C@H](O)[C@H]2O)[C@@H](O)[C@@H]1O [Sucrose]
  Tg′: −32 °C
Reported values
  Tg: 43-65 °C
[1]
  Tg′: Approx. −46

## OC[C@H]1O[C@@](CO)(O[C@H]2O[C@H](CO)[C@@H](O)[C@H](O)[C@H]2O)[C@@H](O[C@H]2O[C@H](CO)[C@@H](O)[C@H](O)[C@H]2O)[C@@H]1O [Melezitose]
Reported values
  Tg: >100 °C

## OC[C@H]1O[C@H](OC[C@H]2O[C@H](OC[C@H]3O[C@H](O[C@]4(CO)O[C@H](CO)[C@@H](O)[C@@H]4O)[C@H](O)[C@@H](O)[C@@H]3O)[C@H](O)[C@@H](O)[C@H]2O)[C@H](O)[C@@H](O)[C@H]1O [Stachyose]
Reported values
  Tg: 81-123 °C

## OC[C@@H](O)[C@@H](O)[C@H](O)[C@H](O)CO [mannitol]
  Teut (eutectic temperature): −3 °C
